The results in this text go back to ChEMBL document CHEMBL1123035, “Synthesis and LSD-like discriminative stimulus properties in a series of N(6)-alkyl norlysergic acid N,N-diethylamide derivatives” (J Med Chem, 1985).

For data set [1], the system named is Rattus norvegicus. Put plainly: Number of rats scored LSD correct/number tested was reported at a dose of 3.710 uM/kg using 2-lever drug discrimination assay; complete generalisation did not occur at the highest dose used. The format is ADME, organism-based. Particulars: in vivo.
In data set [2] the test system is Rattus norvegicus. In words: Number of rats scored LSD correct/number tested was reported at a dose of 11.5 nM/Kg using 2-lever drug discrimination assay; 2/8. The format is functional.
Data set [3] concerns Rattus norvegicus. In words: Number of rats scored LSD correct/number tested was reported at a dose of 93 nM/Kg using 2-lever drug discrimination assay; 6/8. In kind it is functional.
For data set [4], the species on record is Rattus norvegicus. Put plainly: Potency ratio was obtained using a 3 point x 3 point parallel-line bioassay for quantal data and reflects the potency relative to LSD; 1.62-0.62. In kind it is functional.
In data set [5] the test system is Rattus norvegicus. In words: Number of rats scored LSD correct/number tested was reported at a dose of 46.5 nM/Kg using 2-lever drug discrimination assay; 4/8. The format is functional.
Data set [6] concerns Rattus norvegicus. In words: Number of rats scored LSD correct/number tested was reported at a dose of 185 nM/kg using 2-lever drug discrimination assay; 8/8. The format is functional.
The subject of data set [7] is Rattus norvegicus. In words: Number of rats scored LSD correct/number tested was reported at a dose of 23 nM/Kg using 2-lever drug discrimination assay; 2/8. In kind it is functional.
The species named for data set [8] is Rattus norvegicus. In words: Effective dose at which 50% of the rats tested selected the LSD-appropriate lever was reported; 0.019-0.071. The format is functional.
Data set [9] relates to Rattus norvegicus. In words: Number of rats scored LSD correct/number tested was reported at a dose of 93 nM/kg using 2-lever drug discrimination assay; 1/8. In kind it is functional.
In data set [10] the test system is Rattus norvegicus. Put plainly: Number of rats scored LSD correct/number tested was reported at a dose of 185.5 nM/kg using 2-lever drug discrimination assay; 1/8. In kind it is functional.
The species named for data set [11] is Rattus norvegicus. Put plainly: Effective dose at which 50% of the rats tested selected the LSD-appropriate lever was reported; 0.209-0.610. In kind it is functional.
The species entered for data set [12] is Rattus norvegicus. In words: Potency ratio was obtained using a 3 point x 3 point parallel-line bioassay for quantal data and reflects the potency relative to LSD; 0.21-0.08. The format is functional.
Data set [13] deals with Rattus norvegicus. In words: Number of rats scored LSD correct/number tested was reported at a dose of 371 nM/kg using 2-lever drug discrimination assay; 3/8. The format is functional.
For data set [14], the system named is Rattus norvegicus. Put plainly: Number of rats scored LSD correct/number tested was reported at a dose of 46.5 nM/kg using 2-lever drug discrimination assay; 0/8. In kind it is functional.
In data set [15] the test system is Rattus norvegicus. Put plainly: Number of rats scored LSD correct/number tested was reported at a dose of 742 nM/kg using 2-lever drug discrimination assay; 7/8. In kind it is functional.
The test system of data set [16] is Rattus norvegicus. In words: Number of rats scored LSD correct/number tested was reported at a dose of 23.0 nM/Kg using 2-lever drug discrimination assay; 3/8. The format is functional.
Data set [17] has as its system Rattus norvegicus. In words: Number of rats scored LSD correct/number tested was reported at a dose of 46.5 nM/Kg using 2-lever drug discrimination assay; 5/8. The format is functional.
For data set [18], the species on record is Rattus norvegicus. In words: Effective dose at which 50% of the rats tested selected the LSD-appropriate lever was reported; 0.010-0.041. In kind it is functional.
Data set [19] has as its system Rattus norvegicus. In words: Number of rats scored LSD correct/number tested was reported at a dose of 93 nM/Kg using 2-lever drug discrimination assay; 8/8. In kind it is functional.
Data set [20] deals with Rattus norvegicus. Put plainly: Number of rats scored LSD correct/number tested was reported at a dose of 11.5 nM/Kg using 2-lever drug discrimination assay; 3/8. The format is functional.
The species named for data set [21] is Rattus norvegicus. In words: Potency ratio was obtained using a 3 point x 3 point parallel-line bioassay for quantal data and reflects the potency relative to LSD; 2.63-1.00. In kind it is functional.
Data set [22] concerns Rattus norvegicus. Put plainly: Number of rats scored LSD correct/number tested was reported at a dose of 5.75 nM/Kg using 2-lever drug discrimination assay; 2/8. The format is functional.
Data set [23] deals with Rattus norvegicus. In words: Number of rats scored LSD correct/number tested was reported at a dose of 93 nM/kg using 2-lever drug discrimination assay; 3/8. The format is functional.
The subject of data set [24] is Rattus norvegicus. In words: Number of rats scored LSD correct/number tested was reported at a dose of 23 nM/Kg using 2-lever drug discrimination assay; 1/8. In kind it is functional.
Data set [25] is filed under the species Rattus norvegicus. In words: Potency ratio was obtained using a 3 point x 3 point parallel-line bioassay for quantal data and reflects the potency relative to LSD; 0.66-0.25. In kind it is functional.
For data set [26], the system named is Rattus norvegicus. Put plainly: Number of rats scored LSD correct/number tested was reported at a dose of 371 nM/kg using 2-lever drug discrimination assay; 8/8. In kind it is functional.
Data set [27] deals with Rattus norvegicus. Put plainly: Number of rats scored LSD correct/number tested was reported at a dose of 46.5 nM/Kg using 2-lever drug discrimination assay; 2/8. In kind it is functional.
The species entered for data set [28] is Rattus norvegicus. In words: Effective dose at which 50% of the rats tested selected the LSD-appropriate lever was reported; 0.052-0.186. The format is functional.
For data set [29], the system named is Rattus norvegicus. Put plainly: Number of rats scored LSD correct/number tested was reported at a dose of 185.5 nM/Kg using 2-lever drug discrimination assay; 5/8. In kind it is functional.
Data set [30] relates to Rattus norvegicus. In words: Number of rats scored LSD correct/number tested was reported at a dose of 0.742 uM/kg using 2-lever drug discrimination assay; complete generalisation did not occur at the highest dose used. The format is ADME, organism-based. To be noted: in vivo.
The subject of data set [31] is Rattus norvegicus. In words: Number of rats scored LSD correct/number tested was reported at a dose of 46.5 nM/kg using 2-lever drug discrimination assay; 6/8. The format is functional.
Data set [32] concerns Rattus norvegicus. Put plainly: Number of rats scored LSD correct/number tested was reported at a dose of 93 nM/kg using 2-lever drug discrimination assay; 8/8. The format is functional.
Data set [33] relates to Rattus norvegicus. In words: Number of rats scored LSD correct/number tested was reported at a dose of 5.75 nM/kg using 2-lever drug discrimination assay; 3/8. In kind it is functional.
For data set [34], the species on record is Rattus norvegicus. In words: Effective dose at which 50% of the rats tested selected the LSD-appropriate lever was reported; 0.006-0.027. The format is functional.
Data set [35] has as its system Rattus norvegicus. In words: Number of rats scored LSD correct/number tested was reported at a dose of 11.5 nM/kg using 2-lever drug discrimination assay; 4/8. The format is functional.
For data set [36], the system named is Rattus norvegicus. Put plainly: Number of rats scored LSD correct/number tested was reported at a dose of 23 nM/kg using 2-lever drug discrimination assay; 4/8. The format is functional.
The species entered for data set [37] is Rattus norvegicus. Put plainly: Potency ratio was obtained using a 3 point x 3 point parallel-line bioassay for quantal data and reflects the potency relative to LSD; 3.27-1.24. The format is functional.
For data set [38], the system named is Rattus norvegicus. In words: Number of rats scored LSD correct/number tested was reported at a dose of 11.5 nM/Kg using 2-lever drug discrimination assay; 0/8. The format is functional.
For data set [39], the species on record is Rattus norvegicus. Put plainly: Potency ratio was obtained using a 3 point x 3 point parallel-line bioassay for quantal data and reflects the potency relative to LSD. The format is functional.
For data set [40], the system named is Rattus norvegicus. In words: Number of rats scored LSD correct/number tested was reported at a dose of 93.0 nM/Kg using 2-lever drug discrimination assay; 6/8. In kind it is functional.
The test system of data set [41] is Rattus norvegicus. In words: Number of rats scored LSD correct/number tested was reported at a dose of 185.5 nM/Kg using 2-lever drug discrimination assay; 8/8. The format is functional.
The species entered for data set [42] is Rattus norvegicus. Put plainly: Effective dose at which 50% of the rats tested selected the LSD-appropriate lever was reported; 0.029-0.072. The format is functional.

In the case of `CCN(CC)C(=O)[C@@H]1C=C2c3cccc4[nH]cc(c34)C[C@H]2NC1`, in the data set with Rattus norvegicus [1], the Activity is recorded as 50%.
As a reminder, the ED50 is the midpoint of the dose-response relation. For the compound `CCCN1C[C@H](C(=O)N(CC)CC)C=C2c3cccc4[nH]cc(c34)C[C@H]21`, the Activity is on record as 2 in the data set on Rattus norvegicus [2]; 6 with Rattus norvegicus [3]; 4 in the data set on Rattus norvegicus [5]; 8 in the data set on Rattus norvegicus [6]; 2 in the data set with Rattus norvegicus [7]. For the same compound, the Potency ratio in the data set listed under Rattus norvegicus [4] worked out at 1. It took a dose of 0.037 µg/kg to reach the 50% effect level in the data set filed under Rattus norvegicus [8] (ED50).
Take `CCCCN1C[C@H](C(=O)N(CC)CC)C=C2c3cccc4[nH]cc(c34)C[C@H]21`: the Activity in the data set with Rattus norvegicus [9] amounted to 1; in the data set on Rattus norvegicus [10], 1; in the data set with Rattus norvegicus [13] it was 3; in the data set on Rattus norvegicus [14], 0; in the data set on Rattus norvegicus [15] it was 7. Further, the ED50 in the data set listed under Rattus norvegicus [11] is 0.357 µg/kg. In addition, the Potency ratio in the data set listed under Rattus norvegicus [12] was determined as 0.13.
`CCN(CC)C(=O)[C@@H]1C=C2c3cccc4[nH]cc(c34)C[C@H]2N(CC)C1`: the Activity in the data set on Rattus norvegicus [16] came out at 3; with Rattus norvegicus [17] it was 5; in the data set on Rattus norvegicus [19], 8; with Rattus norvegicus [20] it was 3; in the data set on Rattus norvegicus [22], 2. The ED50 in the data set listed under Rattus norvegicus [18] stood at 0.02 µg/kg. Further, the Potency ratio in the data set listed under Rattus norvegicus [21] is reported as 1.63.
Take `CCN(CC)C(=O)[C@@H]1C=C2c3cccc4[nH]cc(c34)C[C@H]2N(C(C)C)C1`: the Activity with Rattus norvegicus [23] is reported as 3; with Rattus norvegicus [24], 1; in the data set on Rattus norvegicus [26], 8; in the data set with Rattus norvegicus [27] it was 2; in the data set on Rattus norvegicus [29], 5. For the same compound, the Potency ratio in the data set filed under Rattus norvegicus [25] was 0.41. For the same compound, in the data set listed under Rattus norvegicus [28], the ED50 was 0.1 µg/kg.
In the data set with Rattus norvegicus [30], `CCN(CC)C(=O)[C@@H]1C=C2c3cccc4[nH]cc(c34)C[C@H]2N(CCc2ccccc2)C1` gave an Activity of 25%.
Take `C=CCN1C[C@H](C(=O)N(CC)CC)C=C2c3cccc4[nH]cc(c34)C[C@H]21`: the Activity in the data set on Rattus norvegicus [31] was found to be 6; in the data set on Rattus norvegicus [32] it was 8; in the data set on Rattus norvegicus [33], 3; with Rattus norvegicus [35], 4; with Rattus norvegicus [36], 4. The compound further gave an ED50 in the data set listed under Rattus norvegicus [34] of 0.013 µmol/kg. Moreover, the Potency ratio in the data set listed under Rattus norvegicus [37] amounted to 2.01.
Consider `CCN(CC)C(=O)[C@@H]1C=C2c3cccc4[nH]cc(c34)C[C@H]2N(C)C1` [LYSERGIDE], for which the Activity in the data set on Rattus norvegicus [38] is reported as 0; with Rattus norvegicus [40] it was 6; with Rattus norvegicus [5], 4; in the data set with Rattus norvegicus [7] it was 2; in the data set with Rattus norvegicus [41], 8. Moreover, in the data set filed under Rattus norvegicus [39], the Potency ratio was determined as 1. For the same compound, in the data set filed under Rattus norvegicus [42], the ED50 was determined as 0.046 µg/kg.
